Data as given in patent US12630523B2, “Isoquinoline derivatives for use as antiviral and antitumour agents” (priority 2021, dated 2026).
Where “and” joins values, the source holds several entries; their conditions need not be identical. Equal values may be shown once. Read-outs that look alike come from different tables or passages of the source.

Key:
[1] = tested on: CaSki (ATCC CRM-CRL-1550); assay: Monolayer assay using Sulphorhodamine B (SRB) staining, CaSki; type: cell-based; details: Homo sapiens, Ca-Ski
Summary of the method: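 After 24 h recovery, 10.000–30.000 cells/well treated 72 h with compound at 9 concentrations. Cells TCA-fixed (10% final) 1 h at 4 °C, SRB-stained, optical density read at 540 nm; EC50 for growth inhibition from non-linear regression of log concentration versus % T/C.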

[2] = tested on: cell signaling molecules (4E-BP1, p70 S6 kinase, Akt, PTPN14, p53, PD-L1); assay: Western blot of cell signaling molecules in CaSki cells
[3] = tested on: SARS-CoV-2 isolate BetaCov/Belgium/GHB-03021/2020; assay: microbe, parasite or virus in culture; type: cell-based; details: for inhibition at 1.25 µM: Severe acute respiratory syndrome coronavirus 2, 1.25 μM (non-toxic compound concentration), n4; for SARS-CoV-2 antiviral activity, mono treatment or combination (FIG. 10): Vero E6 cells, VSP035 10-0.625 μM
[4] = tested on: human cervical carcinoma (CaSki) xenograft; assay: CaSki high risk HPV16 human cervical carcinoma xenograft model; type: in vivo, nude mice; details: for % TGI (Day 44): percentage tumor growth inhibition with respect to controls / Δ% on Day 44 / Δ% Body Weight: OC246/OC974 os 2 mg/kg/day; for % TGI (Day 44): percentage tumor growth inhibition with respect to controls: 4 × week; for % TGI (Day 44): percentage tumor growth inhibition with respect to controls / Tumor Volume Day 44 (mm^3 ± SD): 3 cycles, CDDP i.v. q7d × 3, 6 mg/kg; for Δ% on Day 44 / Δ% Body Weight: CDDP i.v. 6 mg/kg; for Δ% on Day 44: control 100; for Tumor Volume Day 44 (mm^3 ± SD): OC246/OC974 os daily 4 × week, 2 mg/kg/day, control 1099 ± 503; for Δ% Body Weight: between first day of treatment (day 20) and Day 44, control +4.9
Experimental: The aim of this study was to assess the in vivo efficacy of OC246 and OC974 on a human cervical carcinoma (CaSki) xenograft model in nude mice. OC246 and OC974 were administered oral once daily for four times with three days off, for three cycles at 2 mg/kg/dose. Cisplatin (CDDP) was used as a reference compound with three weekly intravenous (q7dx3) administrations of 6 mg/kg.

CaSki cells = assay: Cell cycle analysis using Propidium-Iodide staining (flow cytometry); type: cell-based, human; details: 48 hour incubation; for A*/5 μM (apoptosis as measured from total SUB G1 content) / A*/10 μM (apoptosis as measured from total SUB G1 content): no treatment 15.0; for G2/5 μM / G1/5 μM / G2/10 μM / G1/10 μM: cell cycle distribution; for G2/5 μM / G2/10 μM: no treatment 15.6; for G1/5 μM / G1/10 μM: no treatment 53.3
Experimental: Propidium-Iodide (PI) DNA staining is performed to facilitate cell cycle analysis. For PI-DNA staining, fixed cells and eventually antibody-stained cells are resuspended in 450 μl of PBS (per 10^6 cells) and incubated with 100 μg/ml RNase (stock 1 mg/ml, in PBS) for 10 minutes at 37° C. Cells are then incubated with 5 μg/106 cells of PI (stock 1 mg/ml in PBS) for 10 minutes at room temperature. Samples are stored at 4° C. until CF analysis.
CaSki cells were incubated with various compounds and cell cycle distribution of the cells was assessed using Propidium-Iodide staining.
In order to analyze the cytostatic versus the cytotoxic effect of OC compounds, cell cycle profiles were analyzed in vitro after 48 hour incubations using Flow Cytometry as a read out. For this a cell cycle analysis from selected OC E7 degrader compounds was conducted in CaSki cells. Using 6 well plates, 1.5×10^5 cells were seeded for each well and grown over night at 37° C. 5% CO2. For analysis of the cell cycle behavior, cells were analyzed in the presence of propidium Iodide (PI^−) by flow cytometry (FC). Briefly, cells were detached by trypsin digestion, all supernatants were included in the analysis, and fixed with 70% ice cold ethanol and stored at 4° C. until FC analysis using PI^− staining (1 mg/ml). At least 7000 events were acquired for each sample.

SMILES | EC50 ([1]; read-out: EC50 mean [nM]) | inhibition at 1.25 µM [3] | % TGI (Day 44): percentage tumor growth inhibition with respect to controls [4] | Δ% on Day 44 [4] | Tumor Volume Day 44 (mm^3 ± SD) [4] | Δ% Body Weight [4] | A*/5 μM (apoptosis as measured from total SUB G1 content) (CaSki cells) | A*/10 μM (apoptosis as measured from total SUB G1 content) (CaSki cells) | G2/5 μM (CaSki cells) | G1/5 μM (CaSki cells) | G2/10 μM (CaSki cells) | G1/10 μM (CaSki cells) | further results
Cc1ccc(CN2C(=O)c3ccccc3[C@H](C(=O)Nc3cccc(N4CCN(C)CC4)c3)[C@@H]2c2ccc(C(F)(F)F)cc2)cc1 [OC246, N-[3-(4-methylpiperazin-1-yl)phenyl]-2-[(4-methylphenyl)methyl]-1-oxo-3-[4-(trifluoromethyl)phenyl]-1,2,3,4-tetrahydroisoquinoline-4-carboxamide] | 3050 nM | 45.7% | 66.6% | 27% | 371 ± 153 mm^3 | +5.5% | 19.6% | 89.4% | 15.7% | 48.0% | 0.2% | 1.5% | EC50 ([1]; 72 h): 2890 nM; signaling of phosphor-Akt S473 ([2]; 10 μM, 4 hours, CaSki and U2OS cells): does not inhibit
CN1CCC(CN2C(=O)c3ccccc3[C@@H](C(=O)Nc3cccc(N4CCN(C)CC4)c3)[C@@H]2c2ccc(C(F)(F)F)cc2)CC1 (racemic) [OC974, (3R,4R)- and (3S,4S)-N-[3-(4-methylpiperazin-1-yl)phenyl]-2-[(1-methylpiperidin-4-yl)methyl]-1-oxo-3-[4-(trifluoromethyl)phenyl]-3,4-dihydroisoquinoline-4-carboxamide] | 1550 nM | 54.3% | 63.9% | 23% | 307 ± 171 mm^3 | +1.1% | 19.5% | 82.9% and 81.8% | 9.9% | 49.6% | 0.8% | 8.7% | –
CN1CCC(CN2C(=O)c3ccccc3[C@H](C(=O)Nc3cccc(N4CCN(C)CC4)c3)[C@H]2c2ccc(C(F)(F)F)cc2)CC1 [VSP035, (3S,4S)-N-[3-(4-methylpiperazin-1-yl)phenyl]-2-[(1-methylpiperidin-4-yl)methyl]-1-oxo-3-[4-(trifluoromethyl)phenyl]-1,2,3,4-tetrahydroisoquinoline-4-carboxamide] | 3750 nM | 72.4% | – | – | – | – | – | – | – | – | – | – | PDL-1 regulation ([2]; CaSki, 4 and 8 hours, dose dependent): valid pdl-1 destabilizer; p(S473)Akt, Sting and Irf-3 levels ([2]; CaSki, 10 μm VSP035 time course): do not appear to be influenced; Ptpn14 and p53 levels ([2]; CaSki, 10 μm, 24 h time point): increase in Ptpn14 and p53; Phosphorylation of 4E-BP1 on Ser65 and the p70S6 kinase on Thr389 ([2]; CaSki, 6 h, order 10 μM VSP035, Torin 1, Torin 2, rapamycin, 5 μM VSP035, CGP 57380): inhibited or strongly reduced; 4E-BP1 phosphorylation state ([2]; CaSki, 6 h treatment): dose dependent hypophosphorylation of 4E-BP1; SARS-CoV-2 antiviral activity, mono treatment or combination (FIG. 10) [3]: moderate; SARS-CoV-2 antiviral activity, mono treatment or combination (FIG. 10) ([3]; listed as VS035): Robust antiviral activities
